Experimental data from patent US20230322805A1, “NOVEL PYRIMIDODIAZEPINE DERIVATIVES OR USES THEREOF” (SPARK BIOPHARMA, INC., priority 2020, published 2023).

How the values were obtained:
[1] = test system: protein synthesis in SH-SY5Y cells; test: Protein synthesis labelling with furomycin in SH-SY5Y cells; format: cell-based, human; settings: 10 μM SB1617, with thapsigargin
Experimental: 5-1. […] To assure this, SH-SY5Y cells were treated with 10 μM SB1617 for directed time, and then the newly synthesized protein was labeled with 10 μg/mL furomycin for 10 minutes and visualized by anti-furomycin antibody staining.

[2] = target: T1, DNAJC3 (Homo sapiens, UniProt Q13217); test: CETSA and pull-down assay with probe SB1624; format: binding; set-up: endogenous in cells; host or cells: HEK293 BiFC-tau cells (TS-FITGE, CETSA); SH-SY5Y cells (pull-down with probe SB1624); settings: CETSA 10 μM in HEK293 BiFC-tau cells; pull-down 5 μM SB1624 with or without 40 μM SB1617 in SH-SY5Y cells
T1 sequence (Q13217 32-504): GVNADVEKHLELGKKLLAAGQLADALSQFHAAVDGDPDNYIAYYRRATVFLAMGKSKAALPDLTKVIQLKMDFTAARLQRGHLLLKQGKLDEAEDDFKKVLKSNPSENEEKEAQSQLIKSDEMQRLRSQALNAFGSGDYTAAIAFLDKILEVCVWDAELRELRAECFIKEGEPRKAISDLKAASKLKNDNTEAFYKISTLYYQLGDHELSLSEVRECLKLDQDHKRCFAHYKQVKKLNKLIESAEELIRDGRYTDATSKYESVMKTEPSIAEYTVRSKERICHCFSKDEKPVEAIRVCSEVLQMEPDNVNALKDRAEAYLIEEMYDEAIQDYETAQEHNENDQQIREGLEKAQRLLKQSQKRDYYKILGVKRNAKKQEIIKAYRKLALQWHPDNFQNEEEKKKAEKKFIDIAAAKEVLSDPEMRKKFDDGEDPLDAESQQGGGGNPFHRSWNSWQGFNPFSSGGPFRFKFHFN
Experimental: HEK293 BiFC-tau cells were treated with DMSO (0.1%) and a compound according to the present invention (10 μM) in the presence of thapsigargin (200 nM) for 3 hours. The cell suspension was heated at the indicated temperature range for 3 minutes and then at 25° C. for 3 minutes. The heated cells were washed with PBS and resuspended in Lysis Buffer A. For cell lysis, cell suspensions were freeze-thawed in liquid nitrogen three times. The cell lysate was washed by centrifugation at 20000 g, 4° C. for 20 minutes. Equal volumes of washed cell lysate were combined with SDS buffer and subjected to immunoblotting.
SH-SY5Y cells were seeded in 6-well plates and then treated with 1 μM thapsigargin and 5 μM SB1624 (probe compound) for 2.5 hours with or without 40 μM SB1617. Cells were exposed to 356 nm UV irradiation for 30 min on ice. After washing with cold PBS, cells were lysed in RIPA buffer and removed by centrifugation at […] for 15 minutes at 4° C. The protein concentration of the supernatant was determined by Pierce BCA Protein Assay Kit and the protein concentration was adjusted to 1 mg/mL. […] Proteins were eluted by boiling with 3×SDS sample buffer and analyzed by SDS-PAGE and Western blot. […]

[3] = test system: DsRed-IRES-tau EGFP HEK293 cells; test: Flow cytometry of DsRed-IRES-tau EGFP HEK293 cells (tau clearance); format: cell-based, human; settings: 5 μM compound with 100 nM TG for 20 hours
[4] = test system: acute Alzheimer's mouse model; test: Acute Alzheimer's mouse model (acquisition and probe test); format: in vivo
Experimental: 7-1. Potential therapeutic effect of SB1617 in an acute Alzheimer's mouse model was identified, and the design for the experiment is schematically shown in FIG. 40
7-3. As a result of confirming the treatment efficacy through a probe test, after removing the platform, it was performed by recording how many times the mouse passed the position where the platform was […]

In the case of `CN(Cc1ccc(Cl)cc1)c1ncnc2c1[C@@H]1OC[C@H](CN2)N1S(=O)(=O)c1ccc([N+](=O)[O-])cc1` [Compound 117], the “inhibition of protein synthesis” value [1] is reported as “enhanced and extended”, the “specific binding (CETSA, pull-down)” value [2] is reported as “specifically binds” and the EGFP-to-DsRed signal ratio [3] is reported as “decreased”. For the same molecule, the “learning ability (Acquisition test), rank order” value ([4]; acute Alzheimer's mouse model) was “WT >Donepezil >SB-1617>Vehicle”, the “probe test, number of times of entering the SW quadrant space” value ([4]; compared to the vehicle) was “significantly higher value” and the “probe test, number of times passing the virtual platform” value ([4]; compared to the vehicle) was “significantly higher value”. For the same molecule, the “probe test, time to reach the platform” value ([4]; compared to the vehicle) was “significantly lower value” and the “probe test, percentage (%) of the time spent in the quadrant where the platform exists” value ([4]; mouse, in vivo) was “remembered the location of the platform well”.
